Consider 2 molecules from ChEMBL document CHEMBL5537169, “Structure-Activity Relationships and Discovery of (S)-6-Isopropyl-2-methoxy-3-(3-methoxypropoxy)-10-oxo-5,10-dihydro-6H-pyrido[1,2-h][1,7]naphthyridine-9-carboxylic Acid (AB-452), a Novel Orally Available HBV RNA Destabilizer” (J Med Chem, 2024).

Data set [1] can be described thus: Apparent volume of distribution at steady state in CD-1 mouse at 10 mg/kg,po measured at 0.083 to 24 hrs post administration by LC-MS/MS analysis. It counts as ADME, organism-based. The settings on record: in vivo, time 0.083-24 hrs.
A short description of data set [2]: Tmax in CD-1 mouse at 10 mg/kg,po measured at 0.083 to 24 hrs post administration by LC-MS/MS analysis. The note with it: in vivo, time 0.083-24 hrs. It counts as ADME, organism-based.
Data set [3] in a line: Tmax in Sprague-Dawley rat at 10 mg/kg,po measured at 0.083 to 24 hrs post administration by LC-MS/MS analysis. The settings on record: Sprague-Dawley, in vivo, time 0.083-24 hrs, read-out: Tmax. The class given is ADME, organism-based.
Data set [4] is described as follows: Cardiotoxicity in Langendorff-perfused New Zealand White rabbit heart assessed as increase in PR interval upto 10 uM incubated for 45 mins by ECG analysis. The class given is toxicity, tissue-based, Oryctolagus cuniculus. The settings on record: 0.75 h.
The nature of data set [5]: Cardiotoxicity in Langendorff-perfused New Zealand White rabbit heart assessed as increase in QRS interval upto 10 uM incubated for 45 mins by ECG analysis. The settings on record: 0.75 h. It counts as toxicity, tissue-based, Oryctolagus cuniculus.
The nature of data set [6]: Toxicity in rat assessed as NOAEL administrated for 28 days. The note with it: in vivo, time 28 day.
Data set [7] deals with Hepatitis B virus. As to the kind of experiment: Antiviral activity against AAV-Hepatitis B virus infected in C57BL/6 mouse assessed as serum HBsAg level at 30 mg/kg,po administrated once daily for 7 days by enzyme-linked immunoassay. The class given is functional. The settings on record: time 7 day.
The subject of data set [8] is Hepatitis B virus. The data set is described as follows: Antiviral activity against AAV-Hepatitis B virus infected in C57BL/6 mouse assessed as liver total HBV RNA level at 3 to 30 mg/kg,po administrated once daily for 7 days by branched DNA assay. It counts as functional, organism-based. The note with it: dose 3-30 mg/kg, time 7.0 day.
Data set [9] deals with Hepatitis B virus. The data set is described as follows: Antiviral activity against AAV-Hepatitis B virus infected in human Primary hepatocyte assessed as reduction in HBsAg level measured after 16 days by ELISA. The class given is functional, organism-based. The settings on record: 384 h. For orientation: An ELISA detects its analyte on a solid surface through an enzyme-linked reagent.

The source made the active and inactive calls. The rule behind the calls is not given here.

Consider `COCCCOc1cc2c(cc1Cl)-c1cc(=O)c(C(=O)O)cn1[C@H](C(C)C)CO2`, for which the “Vdss(app)” value in [1] worked out at 1.1 L/kg. Moreover, the Tmax (in general, the time at which the peak concentration occurs) came to 4.1 h in data set [2] and 2.1 h in data set [3].
Regarding `COCCCOc1cc2c(nc1OC)-c1cc(=O)c(C(=O)O)cn1[C@H](C(C)C)C2`, the Activity result in data set [4] was “Non-Toxic”; in data set [5] it was “Non-Toxic”; in the data set on Hepatitis B virus [7] it was 1.78 log10CFU. The NOAEL (usually the highest dose or exposure tested at which no adverse effect was seen) at 672 h in data set [6] worked out at 150 mg/kg. Moreover, in the data set on Hepatitis B virus [8], the result was Active. For the same molecule, in the data set with Hepatitis B virus [9], the EC50 (commonly the concentration giving half of the maximal effect) was found to be 3 nM.
